From ChEMBL document CHEMBL1131795, “The spiroketals containing a benzyloxymethyl moiety at C8 position showed the most potent apoptosis-inducing activity” (1999)

Columns and labels:
Assay type in all cases: functional
Homo sapiens [1] = species on record: Homo sapiens; assay: Cell viability of serum-deprived Jurkat cells were determined, 24 hours after incubation with 100 uM concentration of the compound, by MTT-assay
Homo sapiens [2] = species on record: Homo sapiens; assay: Cell viability of serum-deprived Jurkat cells were determined, 24 hours after incubation with 20 uM concentration of the compound, by MTT-assay
Homo sapiens [3] = species on record: Homo sapiens; assay: Concentration required to cause death of human T cell leukemia Jurkat cell was determined; conditions: read-out: LC50 (the source's name)

| Structure (SMILES) | Cell viability (Homo sapiens [1]) | Cell viability (Homo sapiens [2]) | CC50 (Homo sapiens [3]) |
| --- | --- | --- | --- |
| C[C@@H]1CCCO[C@]12O[C@H](CO)[C@@H](C)C[C@H]2S(=O)(=O)c1ccccc1 | 39% | 67.1% |  |
| C[C@@H]1CCCO[C@@]12CC[C@H](C)[C@@H](COC1CCCCO1)O2 (some centres not stated) | 60.1% | 84.1% |  |
| C[C@@H]1CCCO[C@@]12CC[C@H](C)[C@@H](CO)O2 | 43.8% | 86% |  |
| C[C@@H]1CCCO[C@@]12CC[C@H](C)[C@@H](COCOCc1ccccc1)O2 | 0.3% | 77.9% | 32 µM |
| C[C@@H]1CCCO[C@]12O[C@H](CO[Si](c1ccccc1)(c1ccccc1)C(C)(C)C)[C@@H](C)C[C@H]2S(=O)(=O)c1ccccc1 | 68.4% | 79.5% |  |
| C[C@@H]1CCCO[C@@]12CC[C@H](C)[C@@H](CO[Si](c1ccccc1)(c1ccccc1)C(C)(C)C)O2 | 43% | 38.2% |  |
| C[C@@H]1CCCO[C@@]12CCCCO2 | 87.4% | 98.6% |  |
| COCOC[C@H]1O[C@@]2(CC[C@@H]1C)OCCC[C@H]2C | 81.5% | 89.1% |  |
| C[C@@H]1CCCO[C@@]12CC[C@H](C)[C@@H](COCc1ccccc1)O2 | 0% | 1.7% | 14 µM |
| CC1CC[C@]2(CCCCO2)OC1 (some centres not stated) | 84.6% | 97.7% |  |
